Source: patent US8791267B2, “Biaryl PDE4 inhibitors for treating inflammatory, cardiovascular and CNS disorders” (Decode Genetics EHF, priority 2007, dated 2014)

How the values were obtained:
PDE4B = PDE4B (Homo sapiens, UniProt Q07343); experiment: In-vitro assay for PDE4 enzymes, real-time enzyme-coupled spectrophotometric assay, PDE4B Activity (Table 10); format: biochemical; details: human PDE4B (hPDE4B), enzyme-coupled spectrophotometric assay; read-out: PDE4B Activity, hPDE4B
PDE4 = PDE4 (Homo sapiens, UniProt Q08499); experiment: In-vitro assay for PDE4 enzymes, real-time enzyme-coupled spectrophotometric assay (Table 9); format: biochemical; details: human PDE4D; activity class, Table 9; read-out: hPDE4D
Sequence of PDE4 (Q08499 whole entry): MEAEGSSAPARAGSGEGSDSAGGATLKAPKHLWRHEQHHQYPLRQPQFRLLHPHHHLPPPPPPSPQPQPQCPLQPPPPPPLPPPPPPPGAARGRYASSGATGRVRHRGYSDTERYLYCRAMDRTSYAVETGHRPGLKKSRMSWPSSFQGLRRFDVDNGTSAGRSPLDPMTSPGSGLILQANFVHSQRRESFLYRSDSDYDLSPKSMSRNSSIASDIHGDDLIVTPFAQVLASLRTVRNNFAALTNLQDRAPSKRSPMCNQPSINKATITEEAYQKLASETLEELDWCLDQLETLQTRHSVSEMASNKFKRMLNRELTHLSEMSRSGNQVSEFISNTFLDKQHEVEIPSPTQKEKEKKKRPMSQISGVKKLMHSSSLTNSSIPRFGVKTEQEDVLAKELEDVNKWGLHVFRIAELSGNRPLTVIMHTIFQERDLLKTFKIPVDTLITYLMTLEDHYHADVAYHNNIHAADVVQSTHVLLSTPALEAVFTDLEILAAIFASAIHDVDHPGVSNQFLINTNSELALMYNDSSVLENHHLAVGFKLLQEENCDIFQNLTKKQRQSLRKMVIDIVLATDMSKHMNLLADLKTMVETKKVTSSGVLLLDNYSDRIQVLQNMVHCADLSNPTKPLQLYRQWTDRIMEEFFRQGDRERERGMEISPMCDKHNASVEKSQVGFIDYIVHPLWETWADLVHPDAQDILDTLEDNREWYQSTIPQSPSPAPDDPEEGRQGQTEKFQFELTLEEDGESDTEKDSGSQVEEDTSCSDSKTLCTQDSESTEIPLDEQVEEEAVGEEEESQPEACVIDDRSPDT

Sequence of PDE4B (Q07343 whole entry): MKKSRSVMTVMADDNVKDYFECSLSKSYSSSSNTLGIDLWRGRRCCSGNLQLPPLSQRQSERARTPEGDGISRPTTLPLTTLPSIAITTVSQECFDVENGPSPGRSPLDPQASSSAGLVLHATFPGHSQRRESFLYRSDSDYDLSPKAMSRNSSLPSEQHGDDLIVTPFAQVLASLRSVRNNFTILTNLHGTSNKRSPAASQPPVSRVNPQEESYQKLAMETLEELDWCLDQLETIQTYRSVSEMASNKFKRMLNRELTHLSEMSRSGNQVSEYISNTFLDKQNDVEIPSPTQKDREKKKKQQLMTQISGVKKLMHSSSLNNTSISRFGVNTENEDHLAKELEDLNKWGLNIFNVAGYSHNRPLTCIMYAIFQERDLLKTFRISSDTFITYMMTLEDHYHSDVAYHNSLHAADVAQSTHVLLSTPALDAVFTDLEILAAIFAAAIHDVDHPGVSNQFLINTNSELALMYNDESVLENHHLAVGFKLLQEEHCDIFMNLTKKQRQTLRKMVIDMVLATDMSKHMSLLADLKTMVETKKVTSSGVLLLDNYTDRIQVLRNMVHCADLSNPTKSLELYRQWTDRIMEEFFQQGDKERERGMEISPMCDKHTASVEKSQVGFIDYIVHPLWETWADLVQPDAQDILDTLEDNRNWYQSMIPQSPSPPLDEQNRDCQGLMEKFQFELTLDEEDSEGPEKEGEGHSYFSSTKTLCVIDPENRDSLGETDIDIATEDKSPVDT

COc1ccc(Cc2ccc(N)cc2)c(F)c1-c1cccc(Br)c1 [P-453]
IC50 (PDE4B): < 5 µM
IC50 (PDE4): < 5 µM

COc1ccc(Cc2ccc(NC(C)=O)cc2)cc1-c1cccc([N+](=O)[O-])c1 [P-114]
IC50 (PDE4B): < 5 µM
IC50 (PDE4): < 5 µM

COc1ccc(Cc2ccc(N(C)C)nc2)c(F)c1-c1cccc(C(C)=O)c1 [P-332, 1-[3′-(6-Dimethylamino-pyridin-3-ylmethyl)-2′-fluoro-6′-methoxy-biphenyl-3-yl]-ethanone]
IC50 (PDE4B): < 5 µM
IC50 (PDE4): < 5 µM

O=[N+]([O-])c1cccc(-c2cc(C(O)c3ccc(F)cc3)ccc2OC(F)(F)F)c1 (centres unmarked) [P-079, (4-Fluoro-phenyl)-(3′-nitro-6-trifluoromethoxy-biphenyl-3-yl)-methanol]
IC50 (PDE4B): < 5 µM
IC50 (PDE4): < 5 µM

COc1ccc(Cc2cccc(N)c2)cc1-c1cccc(Cl)c1 [P-255, 3-(3′-Chloro-6-methoxy-biphenyl-3-ylmethyl)-phenylamine]
IC50 (PDE4B): < 5 µM
IC50 (PDE4): < 5 µM

COc1ccc(C(=O)c2ccc(N)cc2)cc1-c1ccc2c(c1)OCCO2 [P-578]
IC50 (PDE4B): < 5 µM
IC50 (PDE4): < 5 µM

COc1ccc(Cc2ccc(C=O)cc2)c(O)c1-c1cccc([N+](=O)[O-])c1 [P-180, 4-(2-Hydroxy-6-methoxy-3′-nitro-biphenyl-3-ylmethyl)-benzaldehyde]
IC50 (PDE4B): < 5 µM
IC50 (PDE4): < 5 µM

CC(=O)Nc1ccc(Cc2ccc(O)c(-c3cccc(Br)c3)c2F)cc1 [P-620]
IC50 (PDE4B): 21 to 40 µM
IC50 (PDE4): < 5 µM

COc1ccc(Cc2ccc(N3CC(O)C3)nc2)c(F)c1-c1cccc(Cl)c1 [P-457, 1-[5-(3′-Chloro-2-fluoro-6-methoxy-biphenyl-3-ylmethyl)-pyridin-2-yl]-azetidin-3-ol]
IC50 (PDE4B): < 5 µM
IC50 (PDE4): < 5 µM

CCOC(=O)Cn1nc(C)c(Cc2ccc(OC)c(-c3cccc([N+](=O)[O-])c3)c2)c1C [P-087, [4-(6-Methoxy-3′-nitro-biphenyl-3-ylmethyl)-3,5-dimethyl-pyrazol-1-yl]-acetic acid ethyl ester]
IC50 (PDE4B): < 5 µM
IC50 (PDE4): < 5 µM

COc1ccc(Cn2cccn2)cc1-c1cccc([N+](=O)[O-])c1 [P-077, 1-(6-Methoxy-3′-nitro-biphenyl-3-ylmethyl)-1H-pyrazole]
IC50 (PDE4B): < 5 µM
IC50 (PDE4): < 5 µM

COc1ccc(Cc2ccc(F)nc2)c(F)c1-c1cccc(Cl)c1 [P-456, 5-(3′Chloro-2-fluoro-6-methoxy-biphenyl-3-ylmethyl)-2-fluoro-pyridine]
IC50 (PDE4B): < 5 µM
IC50 (PDE4): < 5 µM

COc1ccc(Cc2ccc(NC(C)=O)cc2)c(F)c1-c1cccc(Br)c1 [P-168]
IC50 (PDE4B): < 5 µM
IC50 (PDE4): < 5 µM

COc1ccc(CN2CCC[C@H]2CO)cc1-c1cccc([N+](=O)[O-])c1 [P-072, [(S)-1-(6-Methoxy-3′-nitro-biphenyl-3-ylmethyl)-pyrrolidin-2-yl]-methanol]
IC50 (PDE4B): 21 to 40 µM
IC50 (PDE4): 5 to 20 µM

COc1ccc(Cc2cnc(Cl)nc2)c(F)c1-c1cccc(Cl)c1 [P-392]
IC50 (PDE4B): < 5 µM
IC50 (PDE4): < 5 µM

COc1ccc(CN2CCCC2=O)cc1-c1cccc([N+](=O)[O-])c1 [P-029, 1-(6-Methoxy-3′-nitro-biphenyl-3-ylmethyl)-pyrrolidin-2-one]
IC50 (PDE4B): < 5 µM
IC50 (PDE4): < 5 µM

COc1ccc(CN2C(=O)c3ccccc3C2=O)cc1-c1cccc([N+](=O)[O-])c1 [P-042, 2-(6-Methoxy-3′-nitro-biphenyl-3-ylmethyl)-isoindole-1,3-dione]
IC50 (PDE4B): 5 to 20 µM
IC50 (PDE4): < 5 µM

[2H]C(O)(c1ccc(NC(N)=O)cc1)c1ccc(OC)c(-c2cccc(Cl)c2)c1F (centres unmarked) [P-539, {4-[(3′-chloro-2-fluoro-6-methoxy-biphenyl-3-yl)-hydroxy-deutero-methyl]-phenyl}-urea]
IC50 (PDE4B): 21 to 40 µM
IC50 (PDE4): < 5 µM

COc1ccc(Cc2ccc(CNC(C)=O)c(F)c2)c(F)c1-c1cccc(C(C)=O)c1 [P-329]
IC50 (PDE4B): < 5 µM
IC50 (PDE4): < 5 µM

COc1ccc(COC2=CC(=O)CC2)cc1-c1cccc(C(F)(F)F)c1 [P-091, 3-(6-Methoxy-3′-trifluoromethyl-biphenyl-3-ylmethoxy)-cyclopent-2-enone]
IC50 (PDE4B): 21 to 40 µM
IC50 (PDE4): < 5 µM

COc1ccc(Cc2cnc(N(C)C)nc2)c(F)c1-c1cccc(C(C)=O)c1 [P-325, 1-[3′-(2-Dimethylamino-pyrimidin-5-ylmethyl)-2′-fluoro-6′-methoxy-biphenyl-3-yl]-ethanone]
IC50 (PDE4B): < 5 µM
IC50 (PDE4): < 5 µM

COc1ccc(CN2C(=O)C(=O)c3ccccc32)cc1-c1cccc([N+](=O)[O-])c1 [P-041, 1-(6-Methoxy-3′-nitro-biphenyl-3-ylmethyl)-1H-indole-2,3-dione]
IC50 (PDE4B): < 5 µM
IC50 (PDE4): 5 to 20 µM

COc1ccc(Cc2ccc(N3CCC[C@H]3C(N)=O)nc2)c(F)c1-c1cccc(Cl)c1 [P-612, (S)-1-[5-(3′-chloro-2-fluoro-6-methoxy-biphenyl-3-ylmethyl)-pyridin-2-yl]-pyrrolidine-2-carboxylic acid amide]
IC50 (PDE4B): < 5 µM
IC50 (PDE4): < 5 µM

COc1ccc(C2(c3ccc(F)cc3)CCN(C)CC2)cc1-c1cccc(Cl)c1 [P-564, 4-(3′-Chloro-6-methoxy-biphenyl-3-yl)-4-(4-fluoro-phenyl)-1-methyl-piperidine]
IC50 (PDE4B): 21 to 40 µM
IC50 (PDE4): 5 to 20 µM

COc1ccc(Cc2cnc(NC(N)=O)nc2)c(F)c1-c1cccc(C(C)=O)c1 [P-362, [5-(3′-Acetyl-2-fluoro-6-methoxy-biphenyl-3-ylmethyl)-pyrimidin-2-yl]-urea]
IC50 (PDE4B): < 5 µM
IC50 (PDE4): < 5 µM

COc1ccc(Cc2ccccc2CO)cc1-c1cccc([N+](=O)[O-])c1 [P-134, [2-(6-Methoxy-3′-nitro-biphenyl-3-ylmethyl)-phenyl]-methanol]
IC50 (PDE4B): 5 to 20 µM
IC50 (PDE4): < 5 µM

CCOc1ccc(Cc2ccc(NC(N)=O)nc2)c(F)c1-c1cccc(Cl)c1 [P-279]
IC50 (PDE4B): < 5 µM
IC50 (PDE4): < 5 µM

CCOc1ccc(Cc2ccc(NC(N)=O)cc2)cc1-c1cccc(Cl)c1 [P-541, [4-(3′-Chloro-6-ethoxy-biphenyl-3-ylmethyl)-phenyl]-urea]
IC50 (PDE4B): < 5 µM
IC50 (PDE4): < 5 µM

COc1ccc(Cc2ccc(=O)[nH]n2)cc1-c1ccc2nonc2c1 [P-012, 6-(3-Benzo[1,2,5]oxadiazol-5-yl-4-methoxy-benzyl)-2H-pyridazin-3-one]
IC50 (PDE4B): 5 to 20 µM
IC50 (PDE4): 5 to 20 µM

O=c1ccc(Cc2ccc(O)c(-c3cccc([N+](=O)[O-])c3)c2)n[nH]1 [P-488, 6-(6-Hydroxy-3′-nitro-biphenyl-3-ylmethyl)-2H-pyridazin-3-one]
IC50 (PDE4B): 5 to 20 µM
IC50 (PDE4): < 5 µM

COc1ccc(Cc2ccc(NC(C)=O)nc2)c(F)c1-c1cccc(Cl)c1 [P-387]
IC50 (PDE4B): < 5 µM
IC50 (PDE4): < 5 µM

Oc1ccc(Cc2ccc(F)cc2)c(F)c1-c1cccc(Br)c1 [P-496]
IC50 (PDE4B): < 5 µM
IC50 (PDE4): < 5 µM

COc1ccc(Cc2ccncc2)cc1-c1ccc2nonc2c1 [P-011]
IC50 (PDE4B): < 5 µM
IC50 (PDE4): < 5 µM

COc1ccc(CN2CCCCC2=O)cc1-c1cccc([N+](=O)[O-])c1 [P-188, 1-(6-Methoxy-3′-nitro-biphenyl-3-ylmethyl)-piperidin-2-one]
IC50 (PDE4B): < 5 µM
IC50 (PDE4): < 5 µM

COc1ccc(COC2CCCC2)nc1-c1cccc([N+](=O)[O-])c1 [P-038, 6-cyclopentyloxymethyl-3-methoxy-2-(3-nitro-phenyl)-pyridine]
IC50 (PDE4B): 21 to 40 µM
IC50 (PDE4): 5 to 20 µM

COc1ccc(Cc2ccc(CNC(N)=O)cc2)c(F)c1-c1cccc([N+](=O)[O-])c1 [P-237]
IC50 (PDE4B): < 5 µM
IC50 (PDE4): < 5 µM

COc1ccc(COC(C)C)nc1-c1cccc([N+](=O)[O-])c1 [P-030, 6-isopropoxymethyl-3-methoxy-2-(3-nitro-phenyl)-pyridine]
IC50 (PDE4B): 21 to 40 µM
IC50 (PDE4): 5 to 20 µM

COc1ccc(Cc2cnc(N)nc2)c(F)c1-c1cccc(Cl)c1 [P-278]
IC50 (PDE4B): < 5 µM
IC50 (PDE4): < 5 µM

COc1ccc(Cc2ccc(CN)nc2)c(F)c1-c1cccc(Cl)c1 [P-344, C-[5-(3′-Chloro-2-fluoro-6-methoxy-biphenyl-3-ylmethyl)-pyridin-2-yl]-methylamine]
IC50 (PDE4B): < 5 µM
IC50 (PDE4): < 5 µM

COc1ccc(Cc2ccc(CNS(C)(=O)=O)c(O)c2)c(F)c1-c1cccc(Cl)c1 [P-299]
IC50 (PDE4B): 5 to 20 µM
IC50 (PDE4): < 5 µM

NCCOc1ccc(Cc2ccc(NC(N)=O)cc2)cc1-c1cccc(Cl)c1 [P-542, {4-[6-(2-Amino-ethoxy)-3′-chloro-biphenyl-3-ylmethyl]-phenyl}-urea]
IC50 (PDE4B): 21 to 40 µM
IC50 (PDE4): 20 to 40 µM

COc1ccc(Cc2cnc(N)s2)c(F)c1-c1cccc(Cl)c1 [P-369, 5-(3′-Chloro-2-fluoro-6-methoxy-biphenyl-3-ylmethyl)-thiazol-2-ylamine]
IC50 (PDE4B): < 5 µM
IC50 (PDE4): < 5 µM

CCNC(=O)Nc1ccc(Cc2ccc(OC)c(-c3cccc(C#N)c3)c2)cn1 [P-400, 1-[5-(3′-Cyano-6-methoxy-biphenyl-3-ylmethyl)-pyridin-2-yl]-3-ethyl-urea]
IC50 (PDE4B): < 5 µM
IC50 (PDE4): < 5 µM

COc1ccc(Cn2ccccc2=O)cc1-c1cccc([N+](=O)[O-])c1 [P-104, 1-(6-Methoxy-3′-nitro-biphenyl-3-ylmethyl)-1H-pyridin-2-one]
IC50 (PDE4B): < 5 µM
IC50 (PDE4): < 5 µM

COc1ccc(Cc2ccc(CO)nc2)cc1-c1cccc(Cl)c1 [P-567, [5-(3′-Chloro-6-methoxy-biphenyl-3-ylmethyl)-pyridin-2-yl]-methanol]
IC50 (PDE4B): < 5 µM
IC50 (PDE4): < 5 µM

COc1ccc(Nc2ccc(NS(C)(=O)=O)cc2)cc1-c1cccc(C(C)=O)c1 [P-267, N-[4-(3′-Acetyl-6-methoxy-biphenyl-3-ylamino)-phenyl]-methanesulfonamide]
IC50 (PDE4B): < 5 µM
IC50 (PDE4): < 5 µM

COc1ccc(CN2CCNC2=O)nc1-c1cccc([N+](=O)[O-])c1 [P-033, 1-[5-methoxy-6-(3-nitro-phenyl)-pyridin-2-ylmethyl]-imidazolidin-2-one]
IC50 (PDE4B): 5 to 20 µM
IC50 (PDE4): 5 to 20 µM

COc1ccc(C(=O)c2ccc(F)cc2)c(F)c1-c1cccc([N+](=O)[O-])c1 [P-049]
IC50 (PDE4B): < 5 µM
IC50 (PDE4): < 5 µM

COc1ccc(Cc2ccc(CNC(N)=O)c(O)c2)c(F)c1-c1cccc(Cl)c1 [P-301]
IC50 (PDE4B): < 5 µM
IC50 (PDE4): < 5 µM
